According to PubChem BioAssay (NCI):
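These data come from cells grown in 96-well plates and exposed to compound for 48 hours at five concentrations. GI50 marks 50% less growth. TGI is the concentration that stops growth completely.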

Columns and labels:
Test in all cases: inhibition of tumour cell growth, NCI panel, 48 h
A549 NSCLC = system: A549 NSCLC
KM12 colon = system: KM12 colon
SF-268 CNS = system: SF-268 CNS
BT-549 breast = system: BT-549 breast
RPMI-8226 leukemia = system: RPMI-8226 leukemia
SK-MEL-2 melanoma = system: SK-MEL-2 melanoma
HOP-92 NSCLC = system: HOP-92 NSCLC
U251 CNS = system: U251 CNS
PC-3 prostate = system: PC-3 prostate
COLO 205 colon = system: COLO 205 colon

Row | Compound | GI50 (A549 NSCLC) [µM] | TGI (A549 NSCLC) [µM] | GI50 (KM12 colon) [µM] | TGI (KM12 colon) [µM] | GI50 (SF-268 CNS) [µM] | TGI (SF-268 CNS) [µM] | GI50 (BT-549 breast) [µM] | TGI (BT-549 breast) [µM] | GI50 (RPMI-8226 leukemia) [µM] | TGI (RPMI-8226 leukemia) [µM] | TGI (SK-MEL-2 melanoma) [µM] | GI50 (HOP-92 NSCLC) [µM] | TGI (HOP-92 NSCLC) [µM] | GI50 (U251 CNS) [µM] | TGI (U251 CNS) [µM] | GI50 (PC-3 prostate) [µM] | TGI (PC-3 prostate) [µM] | GI50 (COLO 205 colon) [µM] | TGI (COLO 205 colon) [µM] | GI50 (SK-MEL-2 melanoma) [µM]
1 | O=c1[nH]nc(-c2ccccc2)c2c(-c3ccccc3)onc12 | 0.529 | > 100 | 0.389 | > 39.6 | 0.969 | > 77.8 | 0.506 | > 47.8 | 0.474 | > 55.4 | > 100 | 0.933 | > 58.3 | 0.517 | > 100 | 2.12 | > 100 | 0.505 | 9.89 | –
2 | Cc1cc(Cl)ccc1Nc1nc(C(F)(F)F)ccc1C(=O)Nc1cccc(C(F)(F)F)c1 | 3.4 | 18 | 2.1 | 12.1 | 4.22 | 16.6 | 3.76 | 15.7 | 2.73 | 12 | 13.3 | 2.21 | 8.16 | 3 | 9.72 | 3.63 | 15.5 | 2.52 | 6.13 | 3.23
3 | CCc1nc(N)nc(N)c1C#CC(C)c1cc(-c2ccnc(C)c2)c2oc(C)nc2c1 (centres undefined) | < 0.01 | 11.7 | 0.0201 | 10.9 | < 0.01 | 6.02 | 1.03 | 8.31 | 0.0771 | 3.31 | 10.6 | 0.703 | 11.4 | < 0.01 | 11.9 | < 0.01 | 12.1 | 0.0246 | 6.9 | 1.9
4 | C=C(C)C(=O)O[C@H]1CC2=CC(CC(C)=C[C@H]3OC(=O)C(=C)C13)OC2=O (some centres undefined) | – | > 100 | – | 47.1 | – | 68.5 | – | 38.9 | – | 9.21 | 72.4 | – | 32.4 | – | > 100 | – | 53.5 | – | 29.3 | –
5 | Cc1ccc(-c2c3c(N)c4c(nc3nc3c2c(C)nn3-c2ccccc2)CCC4)cc1 | 2.5 | 7.49 | 4.4 | 16 | 3.26 | 11 | 20.7 | 45.5 | 2.23 | 5.53 | 42.6 | 15.7 | 36.3 | 1.95 | 4.01 | 5.07 | 20.9 | 1.69 | 3.6 | 21.1
